Laboratory results taken from patent US12578271B2, “Gram-stain differentiation with nonlinear light scattering” (Temple University—Of The Commonwealth System of Higher …, priority 2020, dated 2026).

Columns and labels:
[1] = test system: E. coli (mc4100 strain); settings: prior SHS studies, living E. coli; cited from earlier work
[2] = pH=7.2; cited from earlier work
[3] = test system: E. coli (mc4100 strain); assay: time-resolved second-harmonic scattering (SHS) of dye uptake by living bacteria, Gram-negative; format: cell-based
Procedure: (§1) Discrete colonies of E. coli (mc4100 strain) and L. rhamnosus ([…] strain) were grown on Luria Broth agar (Sigma-Aldrich) plates. Experimental samples, prepared from single colonies, were cultured (37° C., 150 rpm shaking) in Terrific Broth (TB, Sigma-Aldrich) to late-log/early stationary phase. Samples were lightly pelletized by centrifugation (ca. 1500 g for 2 min) and washed in 1×PBS to remove waste and residual TB. […] Final sample concentrations were maintained at 10 μM (MG) and 50 μM (CV). The 800 nm output from a Ti:sapphire laser (Coherent, […], oscillator only, 50 fs pulse duration, 4 nJ pulse energy, 76 MHz repetition rate, 0.4 W average power) was used as a fundamental light source. As depicted in FIG. 2A, SHS was measured while the sample circulated through a liquid flow system. To ensure collection of the SH signal solely from the sample, a long-pass filter (Schott, RG695) was placed in front of the focusing lens immediately before the sample jet. […] The signal was then detected by a photomultiplier (Hamamatsu, […]), amplified (Stanford Research Systems, SR440), and processed through a correlated photon counting system (Stanford Research Systems, SRS SR400). As a means of separating the surface specific SH response from the hyper-Rayleigh scattering (HRS) of the bulk dye solution, SHS was first measured from the dye solution in the absence of cells. […] To ensure rapid mixing of the suspension, in addition to circulating through the system, the contents of the sample reservoir were continuously stirred.

[4] = test system: L. rhamnosus (R0011 strain); assay: time-resolved second-harmonic scattering (SHS) of dye uptake by living bacteria, Gram-positive; format: cell-based, Lactobacillus (L.) rhamnosus
Procedure: as §1

[5] = E. coli added ca. 10 s, 10 μM MG, 50 μM CV, FIG. 2B

| SMILES | ability to cross bacterial membranes (OM, CM) [1] | fraction of molecules that are cationic [2] | time of onset of second rise of SHS signal (dye has diffused across PM and adsorbs onto outer surface of CM) [3, 5] | time until which second rise of SHS signal continues to grow, then stable plateau ([3]; E. coli added ca. 10 s, 50 μM CV, FIG. 2B) | late time SHS signal relative to HRS baseline ([3]; Gram-negative cells, 50 μM CV, FIG. 4) | fraction of CV from the bulk extracellular solution drawn into the Gram-positive cells ([4]; 50 μM CV) | reduction of the HRS background ([4]; 50 μM CV, after fast transport event, observation time 2000+ s, FIG. 4) | removal of CV from the bulk solution ([4]; 50 μM CV, inferred from reduction of HRS background) | late time SHS signal relative to HRS baseline ([4]; Gram-positive cells, 50 μM CV, FIG. 4) | second rise of SHS signal (arrival at CM) ([4]; within the 2000+ s observation time, also at higher concentrations) | fraction of molecules in solution that are neutral [2] | time of second decay of SHS signal (dye crosses the CM) ([3]; E. coli added ca. 10 s, 10 μM MG, FIG. 2B) | MG uptake kinetics compared with E. coli ([4]; 10 μM MG, FIG. 6) |
| --- | --- | --- | --- | --- | --- | --- | --- | --- | --- | --- | --- | --- | --- |
| CN(C)c1ccc(C(=C2C=CC(=[N+](C)C)C=C2)c2ccc(N(C)C)cc2)cc1 [CV, crystal violet] | unable to cross the bacterial CM | 100% | roughly 70 s | about 400 s | positive response | ca. 30% | 30% | ca. 15 μM | negative response | no second rise of SHS signal is ever observed | – | – | – |
| CN(C)c1ccc(C(=C2C=CC(=[N+](C)C)C=C2)c2ccccc2)cc1 [MG, malachite green] | cross both the OM and CM | – | around 25 s | – | – | – | – | – | – | – | more than 50% | ~120 s | nearly identical transport curves |
